Patent US9120775B2, “Viral polymerase inhibitors” (Biota Scientific Management Pty Ltd, priority 2012, dated 2015)
Converted amounts (≈) assume the structure as drawn. Read-outs that look alike come from different tables or passages of the source.

Tests used:
1b (BK) NS5BΔ21 = target: T1, 1b (BK) NS5BΔ21 (Hepatitis C virus genotype 1b, UniProt P26663); test: HCV polymerase inhibition assay; type: biochemical
T1 construct: 100 nM 1b (BK) NS5BΔ21
Method: HCV polymerase reactions were carried out using a modified method of Howe et al., Antimicrobial Agents and Chemotherapy 2004 48(12): 4813-4821. Reactions contained a final concentration of, 0.5% DMSO, 100 nM 1b (BK) NS5BΔ21, 20 mM Tris-HCl pH 7.5, 5 mM MgCl2, 5 mM MnCl2, 3 mM DTT, 0.05% BSA, 0.2 U/μL RNasin, 10 μg/mL Poly(rC) template, GTP (at Km) and 0.05 μCi/μL ^33P-GTP in a total reaction volume of 50 μL. Compounds were tested in a three fold dilution series, for example starting from 50 μM. Reactions were initiated with the addition of GTP and terminated after […] with 50 μL ice cold 0.2 M EDTA. Terminated reactions were transferred to DEAE 96-well filter plates, unincorporated nucleotides washed from the filters and 50 μL scintillation fluid added prior to reading on a scintillation counter. The compound concentration that reduced ^33P-GTP incorporation by 50% (IC50) was calculated using non-linear regression.

[1] = system: genotype 1b (Con 1) subgenomic replicon cell line; test: HCV replicon assay, genotype 1b, Renilla luciferase reporter; type: cell-based; conditions: Hepatitis C virus; 72 hours incubation, Renilla luciferase activity
Method: A genotype 1b (Con 1) subgenomic replicon cell line based on Blight et al., Science 2000 290: 1972-1974, modified to express a Renilla luciferase reporter gene was used to assess antiviral activity of test compounds. Cell cultures were maintained in a sub-confluent state in DMEM with glutamine, 10% heat-inactivated foetal bovine serum (FBS) and G418 (Geneticin®).
For assay, cells were seeded at a density of 7000 cells/well into 96 well tissue culture trays in culture media lacking G418. Compounds were tested in a three fold dilution series, for example starting from 50 uM. After 72 hours incubation at 37° C. and 5% CO2, Renilla luciferase activity was quantified via the Promega Renilla Luciferase or Renilla-Glo™ Luciferase Assay Systems (Promega corporation. The same method was employed for replicon assays using subgenomic genotype 1a (H77) and 2a (JFH-1) replicon cell lines with a seeding cell density of 5000 cells/well for the 2a cell lines.
The compound concentration that reduced luciferase activity by 50% (EC50) was calculated using non-linear regression.

[2] = Aqueous solubility (laser nephelometry); type: physicochemical; conditions: aqueous assay buffer pH 6.5 with 1% DMSO, aqueous buffer, kinetic from dmso stock, pH 6.5, 1% DMSO, 30 minute incubation at 25° C.
Method: Test compounds prepared in DMSO were screened in duplicate over a range of concentrations (1.6-100 ug/mL) in different aqueous media (for example a pH6.5 buffers which are relevant to the stomach and upper regions of the small intestine and therefore important when predicting the amount of drug likely to be in solution following oral administration). Test compounds were serially diluted in 100% DMSO ranging from 10-0.16 mg/mL. These titrated DMSO stocks were then further diluted 1:100 with assay buffer and added to test plates (UV Star Griener 384 well plates), maintaining the DMSO concentration at 1%.

[3] = read-out: solubility ranges at pH 6.5

T1 sequence (P26663 2420-2989, stated change not applied): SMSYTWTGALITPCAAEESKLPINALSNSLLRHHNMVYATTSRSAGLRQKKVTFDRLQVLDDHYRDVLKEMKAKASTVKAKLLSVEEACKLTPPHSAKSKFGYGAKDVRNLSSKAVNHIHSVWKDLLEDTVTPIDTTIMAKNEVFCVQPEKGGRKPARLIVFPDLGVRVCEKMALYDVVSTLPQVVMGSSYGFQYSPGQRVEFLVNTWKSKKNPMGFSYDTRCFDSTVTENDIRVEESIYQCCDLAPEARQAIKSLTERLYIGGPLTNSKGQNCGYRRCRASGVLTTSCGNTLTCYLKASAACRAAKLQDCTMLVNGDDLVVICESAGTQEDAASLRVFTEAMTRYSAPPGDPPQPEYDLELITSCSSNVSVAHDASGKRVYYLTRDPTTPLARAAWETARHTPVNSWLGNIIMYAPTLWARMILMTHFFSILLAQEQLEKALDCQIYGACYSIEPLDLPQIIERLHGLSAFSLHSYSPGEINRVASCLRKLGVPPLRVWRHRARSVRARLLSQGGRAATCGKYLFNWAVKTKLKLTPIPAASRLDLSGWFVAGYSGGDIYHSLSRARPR

solubility at 30 min [2, 3] [µg/mL]	solubility at 30 min ([2]; read-out: Solubility at pH 6.5) [µg/mL]	SMILES	IC50 (1b (BK) NS5BΔ21) [nM]	EC50 [1] [nM]
		CNC(=O)c1c2cc(C3CC3)c(N(CCC3COC3)S(C)(=O)=O)cc2nn1-c1ccc(Cl)cc1 [Compound 10, 2-(4-chlorophenyl)-5-cyclopropyl-N-methyl-6-{(methylsulfonyl)[2-(oxetan-3-yl)ethyl]amino}-2H-indazole-3-carboxamide]	< 100	< 100
		CNC(=O)c1c2cc(C3CC3)c(N(CCC3CN(C)C3)S(C)(=O)=O)cc2nn1-c1ccc(Cl)cc1 [Compound 7, 2-(4-chlorophenyl)-5-cyclopropyl-N-methyl-6-{[2-(1-methylazetidin-3-yl)ethyl](methylsulfonyl)amino}-2H-indazole-3-carboxamide]	100 to 490	100 to 490
12.5 to 25 (≈ 21.5 to 42.9 µM)		CNC(=O)c1c2cc(C3CC3)c(N(CCC3CN(C(=O)OC(C)(C)C)C3)S(C)(=O)=O)cc2nn1-c1ccc(C)cn1 [Compound 24, tert-butyl 3-[2-[[5-cyclopropyl-3-(methylcarbamoyl)-2-(5-methyl-2-pyridyl)indazol-6-yl]-methylsulfonyl-amino]ethyl]azetidine-1-carboxylate]		
		CNC(=O)c1c2cc(C3CC3)c(N(CCC3(OC)CN(C(=O)OC(C)(C)C)C3)S(C)(=O)=O)cc2nn1-c1ccc(Cl)cc1 [Compound 27, tert-butyl 3-[2-[[2-(4-chlorophenyl)-5-cyclopropyl-3-(methylcarbamoyl)indazol-6-yl]-methylsulfonyl-amino]ethyl]-3-methoxy-azetidine-1-carboxylate]	500 to 990	< 100
		CNC(=O)c1c2cc(C3CC3)c(N(CC3(C)COC3)S(C)(=O)=O)cc2nn1-c1ccc(Cl)cc1 [Compound 12, 2-(4-chlorophenyl)-5-cyclopropyl-N-methyl-6-{[(3-methyloxetan-3-yl)methyl](methylsulfonyl)amino}-2H-indazole-3-carboxamide]	1000 to 10000	1000 to 10000
	1.6 to 3.1 (≈ 3.29 to 6.37 µM)	CNC(=O)c1c2cc(C3CC3)c(N(CC3CCC3)S(C)(=O)=O)cc2nn1-c1ccc(Cl)cc1 [A, reference compound]		
		CNC(=O)c1c2cc(C3CC3)c(N(CCC3CN(C(=O)OC(C)(C)C)C3)S(C)(=O)=O)cc2nn1-c1ccc(Cl)cc1 [Compound 19, tert-butyl 3-(2-{[2-(4-chlorophenyl)-5-cyclopropyl-3-(methylcarbamoyl)-2H-indazol-6-yl](methylsulfonyl)amino}ethyl)azetidine-1-carboxylate]	100 to 490	< 100
		CNC(=O)c1c2cc(C3CC3)c(N(CCCC3CCO3)S(C)(=O)=O)cc2nn1-c1ccc(Cl)cc1 (stereo not drawn) [Compound 4, 2-(4-chlorophenyl)-5-cyclopropyl-N-methyl-6-{(methylsulfonyl)[3-(oxetan-2-yl)propyl]amino}-2H-indazole-3-carboxamide]	< 100	< 100
12.5 to 25 (≈ 25.1 to 50.2 µM)		CNC(=O)c1c2cc(C3CC3)c(N(CCC3COC3C)S(C)(=O)=O)cc2nn1-c1ccc(C)cn1 (stereo not drawn) [Compound 20, 5-cyclopropyl-N-methyl-6-{[2-(2-methyloxetan-3-yl)ethyl](methylsulfonyl)amino}-2-(5-methylpyridin-2-yl)-2H-indazole-3-carboxamide]		
		CNC(=O)c1c2cc(C3CC3)c(N(CCC3COC3C)S(C)(=O)=O)cc2nn1-c1ccc(Cl)cc1 (stereo not drawn) [Compound 31, 2-(4-chlorophenyl)-5-cyclopropyl-N-methyl-6-[2-[-2-methyloxetan-3-yl]ethyl-methylsulfonyl-amino]indazole-3-carboxamide]	100 to 490	< 100
		CNC(=O)c1c2cc(C3CC3)c(N(CCC3CNC3)S(C)(=O)=O)cc2nn1-c1ccc(Cl)cc1 [Compound 6, 6-{[2-(Azetidin-3-yl)ethyl](methylsulfonyl)amino}-2-(4-chlorophenyl)-5-cyclopropyl-N-methyl-2H-indazole-3-carboxamide]	100 to 490	1000 to 10000
	< 1.6	CNC(=O)c1c2cc(C3CC3)c(N(CC3CCOC3)S(C)(=O)=O)cc2nn1-c1ccc(Cl)cc1 (stereo not drawn) [C, reference compound]		
	3.1 to 6.3 (≈ 6.55 to 13.3 µM)	CNC(=O)c1c2cc(C3CC3)c(N(CC3CC3)S(C)(=O)=O)cc2nn1-c1ccc(Cl)cc1 [B, reference compound]		
		CNC(=O)c1c2cc(C3CC3)c(N(CCC3CCO3)S(C)(=O)=O)cc2nn1-c1ccc(Cl)cc1 (stereo not drawn) [Compound 13, 2-(4-chlorophenyl)-5-cyclopropyl-N-methyl-6-{(methylsulfonyl)[2-(oxetan-2-yl)ethyl]amino}-2H-indazole-3-carboxamide]	100 to 490	< 100
	< 1.6	CNC(=O)c1c2cc(C3CC3)c(N(CCC3CCOCC3)S(C)(=O)=O)cc2nn1-c1ccc(Cl)cc1 [D, reference compound]		
		CNC(=O)c1c2cc(C3CC3)c(N(CCN3CC(O)C3)S(C)(=O)=O)cc2nn1-c1ccc(Cl)cc1 [Compound 22, 2-(4-chlorophenyl)-5-cyclopropyl-6-[2-(3-hydroxyazetidin-1-yl)ethyl-methylsulfonyl-amino]-N-methyl-indazole-3-carboxamide]	500 to 990	100 to 490
		CNC(=O)c1c2cc(C3CC3)c(N(CC(C)C3COC3)S(C)(=O)=O)cc2nn1-c1ccc(Cl)cc1 (stereo not drawn) [Compound 15, 2-(4-chlorophenyl)-5-cyclopropyl-N-methyl-6-{(methylsulfonyl) [2-(oxetan-3-yl)propyl]amino}-2H-indazole-3-carboxamide]	100 to 490	500 to 990
		CNC(=O)c1c2cc(C3CC3)c(N(CCC3(C)COC3)S(C)(=O)=O)cc2nn1-c1ccc(Cl)cc1 [Compound 11, 2-(4-chlorophenyl)-5-cyclopropyl-N-methyl-6-{[2-(3-methyloxetan-3-yl)ethyl](methylsulfonyl)amino}-2H-indazole-3-carboxamide]	< 100	< 100
		CNC(=O)c1c2cc(C3CC3)c(N(CCC3(C(C)C)COC3)S(C)(=O)=O)cc2nn1-c1ccc(Cl)cc1 [Compound 16, 2-(4-chlorophenyl)-5-cyclopropyl-N-methyl-6-[(methylsulfonyl) {2-[3-(propan-2-yl)oxetan-3-yl]ethyl}amino]-2H-indazole-3-carboxamide]	< 100	< 100
		CNC(=O)c1c2cc(C3CC3)c(N(CCC3COC3)S(C)(=O)=O)cc2nn1-c1ccc(C)cn1 [Compound 5, 5-cyclopropyl-N-methyl-2-(5-methylpyridin-2-yl)-6-{(methylsulfonyl)[2-(oxetan-3-yl)ethyl]amino}-2H-indazole-3-carboxamide]	500 to 990	
50 to 100 (≈ 97.3 to 195 µM)		CNC(=O)c1c2cc(C3CC3)c(N(CCC3(OC)COC3)S(C)(=O)=O)cc2nn1-c1ccc(C)cn1 [Compound 28, 5-cyclopropyl-6-[2-(3-methoxyoxetan-3-yl)ethyl-methylsulfonyl-amino]-N-methyl-2-(5-methyl-2-pyridyl)indazole-3-carboxamide]		
> 100		CNC(=O)c1c2cc(C3CC3)c(N(CCC3(C)COC3)S(C)(=O)=O)cc2nn1-c1ccc(C)cn1 [Compound 21, 5-cyclopropyl-N-methyl-6-{[2-(3-methyloxetan-3-yl)ethyl](methylsulfonyl)amino}-2-(5-methylpyridin-2-yl)-2H-indazole-3-carboxamide]		

SMILES	solubility at 30 min [2, 3] [µg/mL]	solubility at 30 min ([2]; read-out: Solubility at pH 6.5) [µg/mL]	IC50 (1b (BK) NS5BΔ21) [nM]	EC50 [1] [nM]
CNC(=O)c1c2cc(C3CC3)c(N(CCC3COC3C)S(C)(=O)=O)cc2nn1-c1ccc(Cl)cc1 (stereo not drawn) [Compound 9, 2-(4-Chlorophenyl)-5-cyclopropyl-N-methyl-6-[{2[-2-methyloxetan-3-yl]ethyl}(methylsulfonyl)amino]-2H-indazole-3-carboxamide]	25 to 50 (≈ 48.4 to 96.7 µM)			
